This note sets out measurements from patent US20240300940A1, “Phenothiazinyl Compounds and Uses” (Prosetta Biosciences, Inc., priority 2023, published 2024).

pEC50: −log10 of the molar value.

The subject of data set [1] is Sensitive strain. The data set can be described thus: Cross resistance test (MIC). To be noted: read-out: MIC, Sensitive strain.
Data set [2] is described as follows: Mouse plasma pharmacokinetics. The method, then:
For the mouse plasma pharmacokinetic analyses, the study was conducted in BALB/c mice with single dose of IV-3 mg/kg. Blood samples were collected at 10 time points/dose (0.25, 0.5, 1, 2, 4, 6, 8, 10, 12, and 24 h post dose). At each time point, blood samples were collected from 4 mice from the retro-orbital plexus. A terminal blood collection method was employed for collecting blood samples for each time point in all PK studies. […] The PK parameters were estimated by noncompartmental analysis.
Dose—mg/kg, AUC—ng. h/mL, Cmax-ng/mL, Tmax-h, Kel—1/h, Half-life-h, MRT-h, Clearance—mL/min/kg, Vd-L/kg, Bioavailability-%. IV—Intravenous, IP— Intraperitoneal, PO—Per oral.

The subject of data set [3] is Hennes-20 cells. The data set can be described thus: Hennes-20 oncology screen. The data set is classed as cell-based. The conditions noted are these: 72 h, alamar Blue. A digest of the protocol: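 Cells seeded at 500 and 15,000 per well in minimum essential medium, dosed with a compound titration after 24 h, then incubated 72 h at 37 °C. Alamar Blue added and incubated a further 72 h, read at 530/590. Lower signal only at low density indicates proliferation arrest; lower signal at both densities indicates toxicity.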
In general terms: Resazurin is reduced to fluorescent resorufin, in cell work by metabolically active cells.

[4] abbreviates: BALB/c, mouse, in vivo, iv, 3 mg/kg.

`CC1(C)C2CN(c3ccc4nc5ccc(N6CC7C(C6)C7(C)C)cc5[s+]c4c3)CC21` (centres unmarked) [Compound 1, 3,7-Di(6,6-dimethyl-3-azabicyclo[3.1.0]hexan-N-yl)phenothiazinium iodide]: the minimal inhibitory concentration (MIC) in data set [1] was 0.25 µg/mL. In data set [2] (setting [4]), this compound gave a total exposure AUC(0-inf) of 2980 ng·h/mL, an AUC(0-t) of 2710 ng·h/mL, a Cmax of 5620 ng/mL and a mean residence time (MRT) of 7 h. In data set [2] (setting [4]), the Tmax is 4.8 min, the Vd came out at 7 L/kg, the clearance amounted to 17 mL/min/kg and the half-life was 10 h. In data set [2] (mice, IV 3 mg/kg single dose), the Kel amounted to 0.07 h⁻¹. Also, the pEC50 in data set [3] is 6.30.

A word on the MIC: it is the lowest concentration that inhibits growth of the organism. The term AUC(0-inf) denotes total exposure, with the tail of the curve extrapolated. As a reminder, the AUC(0-t) is exposure summed from dosing to a finite time, without extrapolation to infinity. The Cmax is the peak of the concentration-time curve. What is called MRT is a mean duration of stay, worked out from the concentration-time curve. As a reminder, the Tmax is the time at which the peak concentration occurs. For orientation: Vd means a proportionality between amount in the body and measured concentration, not a real space. For orientation: clearance means a measure of how efficiently the substance is removed, as volume per time. The term half-life denotes how long it takes for the measured level to halve. A lower half-life goes with fast loss. The pEC50 is the negative decadic logarithm of the EC50, by convention in mol/L.
